Measured values published in PMC7216583 (Parasites & Vectors, 2020).
Where a name gives a salt, the structure may show the parent alone. Read-outs that look alike come from different tables or passages of the source.

Columns and labels:
[1] = tested on: Toxoplasma gondii RH-2F tachyzoites; test: microbe, parasite or virus in culture; details: 72 h
[2] = molecular target: PLK1 (Polo-like kinase 1); set-up: method as in S-inhibitor; details: ref S-inhibitor; cited from earlier work
[3] = tested on: c-Kit; set-up: method as in S-inhibitor; details: ref S-inhibitor; cited from earlier work
[4] = tested on: PDGFRα; set-up: method as in S-inhibitor; details: ref S-inhibitor; cited from earlier work
[5] = tested on: VEGFR2; set-up: method as in S-inhibitor; details: ref S-inhibitor; cited from earlier work
[6] = tested on: PI3Kγ; details: read-out: IC50, PI3Kγ; ref S-inhibitor; cited from earlier work
[7] = tested on: HER2/ErbB2; set-up: method as in S-inhibitor; details: ref S-inhibitor; cited from earlier work
[8] = tested on: Flt; set-up: method as in S-inhibitor; details: ref S-inhibitor; cited from earlier work
[9] = tested on: EGFR; set-up: method as in S-inhibitor; details: ref S-inhibitor; cited from earlier work
[10] = molecular target: sterol C14ɑ demethylase; set-up: method as in library vendor description; details: ref library vendor description; cited from earlier work
[11] = tested on: ROCK; set-up: method as in S-inhibitor; details: ref S-inhibitor; cited from earlier work
[12] = tested on: microtubule; set-up: method as in library vendor description; details: ref library vendor description; cited from earlier work
[13] = molecular target: KSP (HsEg5); set-up: method as in S-inhibitor; details: ref S-inhibitor; cited from earlier work
[14] = tested on: microtubule; set-up: method as in S-inhibitor; details: ref S-inhibitor; cited from earlier work
[15] = tested on: PI3Kγ; set-up: method as in library vendor description; details: ref library vendor description; cited from earlier work
[16] = tested on: PI3Kβ; set-up: method as in library vendor description; details: ref library vendor description; cited from earlier work
[17] = tested on: mTOR; set-up: method as in library vendor description; details: ref library vendor description; cited from earlier work
[18] = tested on: PI3Kα; set-up: method as in library vendor description; details: ref library vendor description; cited from earlier work
[19] = tested on: PI3Kδ; set-up: method as in library vendor description; details: ref library vendor description; cited from earlier work
[20] = tested on: MAO-B; set-up: method as in S-inhibitor; details: ref S-inhibitor; cited from earlier work
[21] = tested on: HDAC8; set-up: method as in S-inhibitor; details: ref S-inhibitor; cited from earlier work
[22] = tested on: HDAC3; set-up: method as in S-inhibitor; details: ref S-inhibitor; cited from earlier work
[23] = molecular target: farnesyltransferase (FTase); set-up: method as in S-inhibitor; details: ref S-inhibitor; cited from earlier work
[24] = tested on: IKKε; set-up: method as in library vendor description; details: ref library vendor description; cited from earlier work
[25] = tested on: TBK1; set-up: method as in library vendor description; details: ref library vendor description; cited from earlier work
[26] = tested on: PDK-1; set-up: method as in library vendor description; details: ref library vendor description; read-out: IC50 PDK-1; cited from earlier work
[27] = in vitro; details: human, Host viability (%) mean
[28] = tested on: Aurora B; set-up: method as in S-inhibitor; details: ref S-inhibitor; cited from earlier work
[29] = tested on: Aurora C; set-up: method as in S-inhibitor; details: ref S-inhibitor; cited from earlier work
[30] = tested on: Endothelin A (ETA); set-up: method as in S-inhibitor; details: ref S-inhibitor; cited from earlier work
[31] = molecular target: Bcl-w; set-up: method as in library vendor description; details: ref library vendor description; cited from earlier work
[32] = molecular target: HIV-I integrase (IN); set-up: method as in S-inhibitor; details: ref S-inhibitor; cited from earlier work
[33] = tested on: ROCK1; set-up: method as in S-inhibitor; details: ref S-inhibitor; cited from earlier work
[34] = tested on: ROCK2; set-up: method as in S-inhibitor; details: ref S-inhibitor; cited from earlier work
[35] = tested on: CDK2; set-up: method as in S-inhibitor; details: ref S-inhibitor; cited from earlier work
[36] = tested on: CDK5; set-up: method as in S-inhibitor; details: ref S-inhibitor; cited from earlier work
[37] = tested on: CDK7; set-up: method as in S-inhibitor; details: ref S-inhibitor; cited from earlier work
[38] = molecular target: HCV polymerase; set-up: method as in S-inhibitor; details: ref S-inhibitor; cited from earlier work
[39] = tested on: HPDE4; set-up: method as in S-inhibitor; details: ref S-inhibitor; cited from earlier work
[40] = tested on: LPDE4; set-up: method as in S-inhibitor; details: ref S-inhibitor; cited from earlier work
[41] = tested on: Ron; set-up: method as in library vendor description; details: ref library vendor description; cited from earlier work
[42] = tested on: human foreskin fibroblasts (HFFs)
[43] = tested on: VEGFR1; set-up: method as in library vendor description; details: ref library vendor description; cited from earlier work
[44] = tested on: Tie2; set-up: method as in library vendor description; details: ref library vendor description; cited from earlier work
[45] = tested on: Toxoplasma gondii RH-2F tachyzoites; details: preliminary screen, mean
[46] = tested on: VEGFR3; set-up: method as in library vendor description; details: ref library vendor description; cited from earlier work
[47] = tested on: p38 MAPK; set-up: method as in S-inhibitor; details: ref S-inhibitor; cited from earlier work
[48] = tested on: Aβ42; set-up: method as in library vendor description; details: γ-secretase inhibitor; ref library vendor description; cited from earlier work
[49] = tested on: Aβ40; set-up: method as in library vendor description; details: γ-secretase inhibitor; ref library vendor description; cited from earlier work
[50] = tested on: HCV NS5A; set-up: method as in S-inhibitor; details: ref S-inhibitor; cited from earlier work
[51] = molecular target: Flk-1/KDR; set-up: method as in S-inhibitor; details: ref S-inhibitor; cited from earlier work
[52] = molecular target: PDGFRβ; set-up: method as in S-inhibitor; details: ref S-inhibitor; cited from earlier work
[53] = tested on: JAK1; details: read-out: IC50, JAK1; ref S-inhibitor; cited from earlier work
[54] = tested on: JAK3; details: read-out: IC50, JAK3; ref S-inhibitor; cited from earlier work
[55] = read-out: Parasite inhibition (%) mean, preliminary screen, mean
[56] = read-out: Parasite inhibition (%) mean

Compound: COc1ccc(S(=O)(=O)N(C(C)=O)c2ccccc2/C=C/c2cc[n+]([O-])cc2)cc1 [HMN-214]
- inhibition of growth at 5 µM [1, 55]: -11.6%
- IC50 [2]: 118 nM

Compound: COc1cc2nccc(Oc3ccc(NC(=O)Nc4ccc(F)cc4F)c(F)c3)c2cc1OC [Ki8751]
- inhibition of growth at 5 µM [1, 55]: -45.8%
- IC50 [3]: 40 nM
- IC50 [4]: 67 nM
- IC50 [5]: 0.9 nM

Compound: CC(=O)Nc1nc(C)c(-c2ccc(Cl)c(S(=O)(=O)NCCO)c2)s1 [PIK-93]
- inhibition of growth at 5 µM [1, 56]: 1.5%

Compound: CCN1CCN(Cc2ccc(-c3cc4c(N[C@H](C)c5ccccc5)ncnc4[nH]3)cc2)CC1 [AEE788 (NVP-AEE788)]
- inhibition of growth at 5 µM [1, 55]: -2.1%
- IC50 [7]: 6 nM
- IC50 [8]: 59 nM
- IC50 [9]: 2 nM
- IC50 [5]: 77 nM

Compound: CC[C@@H]([C@H](C)O)n1ncn(-c2ccc(N3CCN(c4ccc(OC[C@@H]5CO[C@@](Cn6cncn6)(c6ccc(F)cc6F)C5)cc4)CC3)cc2)c1=O [Posaconazole]
- inhibition of growth at 5 µM [1, 55]: 0.6%
- IC50 [10]: 0.25 nM

Compound: O=C(NCc1ccccc1)c1csc(Nc2ccncn2)n1 [Thiazovivin]
- inhibition of growth at 5 µM [1, 55]: -0.7%
- IC50 [11]: ~500 nM

Compound: C/C(=C\c1csc(C)n1)[C@@H]1C[C@@H]2O[C@@H]2CCC[C@H](C)[C@H](O)[C@@H](C)C(=O)C(C)(C)[C@@H](O)CC(=O)O1 [Epothilone A]
- inhibition of growth at 5 µM [1, 55]: 20.4%
- EC0.01 microtubule-stabilizing [12]: Epothilone A is a Taxol-like microtubule-stabilizing agent with EC0.01 of 2 μM.

Compound: Cc1ccc(C(=O)N(CCCN)[C@@H](c2nc3cc(Cl)ccc3c(=O)n2Cc2ccccc2)C(C)C)cc1 [Ispinesib (SB-715992)]
- inhibition of growth at 5 µM [1, 55]: 2.1%
- Ki [13]: 1.7 nM

Compound: C/C(=C\c1csc(C)n1)[C@H]1C[C@@H]2O[C@]2(C)CCC[C@H](C)[C@H](O)[C@@H](C)C(=O)C(C)(C)[C@H](O)CC(=O)O1 [Epothilone B (EPO906)]
- inhibition of growth at 5 µM [1, 56]: 36.5%
- EC0.01, microtubule stabilization [14]: Epothilone B is a Taxol-like microtubule-stabilizing agent with EC0.01 of 1.8 μM.

Compound: O=C1NC(=O)/C(=C/c2ccc3nccc(-c4ccncc4)c3c2)S1 [GSK1059615]
- IC50 [15]: 5 nM
- inhibition of growth at 5 µM [1, 55]: 40.6%
- IC50 [16]: 0.6 nM
- IC50 [17]: 12 nM
- IC50 [18]: 0.4 nM
- IC50 [19]: 2 nM

Compound: C[C@H](NCc1ccc(OCc2cccc(F)c2)cc1)C(N)=O [Safinamide Mesylate (FCE28073)]
- inhibition of growth at 5 µM [1, 55]: 5.9%

Compound: Cc1cc(Cl)ccc1OCCCC(=O)NO [Droxinostat]
- IC50 [21]: 1460 nM
- inhibition of growth at 5 µM [1, 55]: 7.2%
- IC50 [22]: 16.9 µM

Compound: Cn1cncc1[C@@](N)(c1ccc(Cl)cc1)c1ccc2c(c1)c(-c1cccc(Cl)c1)cc(=O)n2C [Tipifarnib (Zarnestra)]
- inhibition of growth at 5 µM [1, 55]: 6.5%
- IC50 [23]: 0.6 nM

Compound: O=C(NCCCNc1nc(Nc2cccc(NC(=O)N3CCCC3)c2)ncc1I)c1cccs1 [BX-795]
- inhibition of growth at 5 µM [1, 55]: 0.7%
- IC50 [24]: 41 nM
- IC50 [25]: 6 nM
- IC50 [26]: 111 nM

Compound: CCc1cccc(CC)c1NC(=O)N1Cc2n[nH]c(NC(=O)c3ccc(N4CCN(C)CC4)cc3)c2C1 [PHA-680632]
- inhibition of growth at 5 µM [1, 55]: 88.8%
- viability at 72 h [27]: 45.2%
- IC50 [28]: 135 nM
- IC50 [29]: 120 nM

Compound: COc1nc(C)cnc1NS(=O)(=O)c1cccnc1-c1ccc(-c2nnco2)cc1 [Zibotentan (ZD4054)]
- inhibition of growth at 5 µM [1, 55]: 1.8%
- IC50 [30]: 21 nM

Compound: CC1(C)CCC(c2ccc(Cl)cc2)=C(CN2CCN(c3ccc(C(=O)NS(=O)(=O)c4ccc(N[C@H](CCN5CCOCC5)CSc5ccccc5)c(S(=O)(=O)C(F)(F)F)c4)cc3)CC2)C1 [ABT-263 (Navitoclax)]
- inhibition of growth at 5 µM [1, 55]: 33.5%
- Ki [31]: ≤ 1 nM

Compound: Cn1c(N2CCCCS2(=O)=O)nc(C(=O)NCc2ccc(F)cc2)c(O)c1=O [BMS-707035]
- inhibition of growth at 5 µM [1, 55]: 0.2%
- IC50 [32]: 15 nM

Compound: CC1=C(C(=O)Nc2cc3cn[nH]c3cc2F)C(c2ccc(C(F)(F)F)cc2)CC(=O)N1 (stereo not drawn) [GSK429286A]
- inhibition of growth at 5 µM [1, 55]: 0.9%
- IC50 [33]: 14 nM
- IC50 [34]: 63 nM

Compound: CC(C)CC(=O)Nc1[nH]nc2c1CN(C(=O)C1CCN(C)CC1)C2(C)C [PHA-793887]
- IC50 [35]: 8 nM
- inhibition of growth at 5 µM [1, 55]: 0.6%
- IC50 [36]: 5 nM
- IC50 [37]: 10 nM

Compound: CC(C)(C)C#Cc1cc(N(C(=O)[C@H]2CC[C@H](C)CC2)[C@H]2CC[C@H](O)CC2)c(C(=O)O)s1 [VX-222]
- inhibition of growth at 5 µM [1, 55]: 9.6%
- IC50 [38]: 940 to 1200 nM

Compound: COc1ccc(C2(C#N)CCC(C(=O)O)CC2)cc1OC1CCCC1 (stereo not drawn) [Cilomilast (SB-207499)]
- inhibition of growth at 5 µM [1, 55]: 65.2%
- IC50 [39]: 120 nM
- IC50 [40]: 100 nM

Compound: MGCD-265
- IC50 [41]: 2 nM
- Host viability (%) mean [42]: 68.1%
- IC50 [43]: 3 nM
- IC50 [44]: 7 nM
- Parasite inhibition (%) mean [45]: 88.8%
- IC50 [46]: 4 nM

Compound: CC(C)(C)Cn1c(N)nc2ccc(-c3[nH]c(C(C)(C)C)nc3-c3ccc(F)cc3)nc21 [LY2228820]
- inhibition of growth at 5 µM [1, 55]: -12.7%
- IC50 [47]: 7 nM

Compound: NC(=O)[C@@H](CCC(F)(F)F)N(Cc1ccc(-c2ncon2)cc1F)S(=O)(=O)c1ccc(Cl)cc1 [BMS-708163 (Avagacestat)]
- IC50 [48]: 0.27 nM
- inhibition of growth at 5 µM [1, 55]: 8.7%
- IC50 [49]: 0.3 nM

Compound: COC(=O)N[C@H](C(=O)N1CCC[C@H]1c1ncc(-c2ccc(-c3ccc(-c4cnc([C@@H]5CCCN5C(=O)[C@@H](NC(=O)OC)C(C)C)[nH]4)cc3)cc2)[nH]1)C(C)C [Daclatasvir (BMS-790052)]
- inhibition of growth at 5 µM [1, 55]: 3.9%
- EC50 [50]: 0.009 to 0.05 nM

Compound: Cc1[nH]c(/C=C2\C(=O)Nc3ccccc32)c(C)c1CCC(=O)O [TSU-68 (SU6668)]
- inhibition of growth at 5 µM [1, 55]: 2.8%
- Ki [51]: 2100 nM
- Ki [52]: 8 nM

Compound: N#CC[C@H](C1CCCC1)n1cc(-c2ncnc3[nH]ccc23)cn1 [Ruxolitinib (INCB018424)]
- inhibition of growth at 5 µM [1, 55]: 10.2%
